Measurements from patent US20080045595A1, “METHOD OF TREATING CANCER” (Myriad Genetics, Incorporated, priority 2004, published 2008).
“Also recorded” adds a separate entry of the source.

How the values were obtained:
[1] = tested on: MCF-7, a human breast cancer cell line; experiment: Cytotoxicity (ATPLite cell growth inhibition), Example 3, MCF-7 cells; assay type: cell-based; conditions: MCF7a, 72 hours exposure, ATPLite assay, mean ± standard deviation, read-out: IC50 (concentration that inhibited growth by 50%)
Procedure: (§1) A. MCF-7, a human breast cancer cell line was obtained from ATCC (Catalog number: HTB-22)
(§2) All compounds were tested in triplicate.

[2] = tested on: NCI/ADR-RES, a multi drug resistant cell line over-expressing MDR-1; experiment: Cytotoxicity (ATPLite cell growth inhibition), Example 1, MDR-1 over-expressing cells; assay type: cell-based; conditions: Homo sapiens, MDR1; NCI/ADR-RES cells (MDR-1 over-expressing), 72 hours exposure, ATPLite assay, mean ± standard deviation; read-out: IC50 (concentration that inhibited growth by 50%)
Procedure: B. NCl/ADR-RES, a multi drug resistant cell line over-expressing MDR-1 was obtained from NCl, Frederick, Md. This cell line has previously been called MCF-7/ADR by NCl.
(§3) MCF-7 cells were supplemented additionally with 10 μg/ml recombinant human insulin.
(§4) All compounds were tested triplicate.

[3] = tested on: MCF-7, a human breast cancer cell line; experiment: Cytotoxicity (ATPLite cell growth inhibition), Example 2, MCF-7 cells; assay type: cell-based; conditions: MCF7a, 72 hours exposure, ATPLite assay, mean ± standard deviation, read-out: IC50 (concentration that inhibited growth by 50%)
Procedure: as §1, §2

[4] = tested on: MCF-7/VP, a multi drug resistant cell line over-expressing MRP-1; experiment: Cytotoxicity (ATPLite cell growth inhibition), Example 2, MRP-1 over-expressing cells; assay type: cell-based; conditions: Homo sapiens, MCF7-VP; MCF-7/VP cells (MRP-1 over-expressing), 72 hours exposure, ATPLite assay, mean ± standard deviation; read-out: IC50 (concentration that inhibited growth by 50%)
Description: Over-expression of the product of the ABCC1 gene encoding the multidrug resistance associated protein 1 confers resistance to a wide variety of agents including etoposide, methotrexate, cisplatins and anthracyclines. […] MCF-7/VP cells, a MCF-7 derivative selected for resistance to etoposide, over-express the MRP-1 protein (1).
B. MCF-7/VP, a multi drug resistant cell line over-expressing MRP-1 was obtained from Dr. Erasmus Schneider, Wadsworth Center, NYS Dept. of Health, Albany, N.Y. 12237.
as §2

[5] = tested on: MCF-7, a human breast cancer cell line; experiment: Cytotoxicity (ATPLite cell growth inhibition), Example 1, MCF-7 cells; assay type: cell-based; conditions: MCF7a, 72 hours exposure, ATPLite assay, mean ± standard deviation, read-out: IC50 (concentration that inhibited growth by 50%)
Procedure: as §1, §3, §4

[6] = tested on: MCF-7/MX, a multi drug resistant cell line over-expressing BCRP; experiment: Cytotoxicity (ATPLite cell growth inhibition), Example 3, BCRP over-expressing cells; conditions: for IC50: Homo sapiens, MCF7/MX, 72 h, read-out: IC50 (concentration that inhibited growth by 50%); for Difference in cytotoxic activity between normal (MCF-7) and BCRP over-expressing (MCF-7/MX) cell line: ratio of IC50 MCF-7/MX versus MCF-7
Procedure: Methods: The tumor cells were plated at 5,000 cells/well in a 96 well tissue culture plate and grown for 24 hours at 37° C. The cells were then exposed to various concentrations of 5-chloro-N-[2-(4-chloro-naphtalen-1-yloxy)-5-trifluoromethyl-phenyl]-2-hydroxy-benzamide, Camptothecin or Epirubicin for 72 hours and the inhibition of cell growth due to exposure to the drug was determined using the ATPLite assay. Data are expressed as the concentration that inhibited growth by 50%.
Stock solutions of compounds dissolved in DMSO were used to prepare compound dilutions for activity determination. 5-chloro-N-[2-(4-chloro-naphtalen-1-yloxy)-5-trifluoromethyl-phenyl]-2-hydroxy-benzamide was tested at a final concentration of 100 μM, 33.3 μM, 11.1 μM, 3.7 μM, 1.23 μM, 0.4 μM and 0.13 μM for both cell lines. CPT-11 was tested at 1 μM, 0.33 μM, 0.1 μM, 0.04 μM, 0.012 μM, 0.004 μM and 0.001 μM in MCF-7 cells and at 10 μM, 3.3 μM, 1.1 μM, 0.37 μM, 0.12 μM, 0.04 μM and 0.013 μM in MCF-7/MX cells. Epirubicin was tested at 10 μM, 3.3 μM, 1.1 μM, 0.37 μM, 0.12 μM, 0.04 μM and 0.013 μM for MCF-7 cells and at 100 μM, 33.3 μM, 11.1 μM, 3.7 μM, 1.23 μM, 0.4 μM and 0.13 μM for MCF-7/MX cells. The final concentration of DMSO in all cases was adjusted to 0.2% v/v.
Both cell lines were cultured in RPMI-1640 supplemented with 10% fetal bovine serum, 2 mM Glutamax, 1 mM sodium pyruvate, 0.1 mM non-essential amino acids, 10 μg/ml recombinant human insulin and 10 mM Hepes. All cell lines were grown at 37° C. in a humidified 5% CO2 atmosphere.
For testing the effect of compounds on cell growth, exponentially growing cells were harvested by trypsinization and plated in fresh growth medium at 50,000 cells/ml, one hundred microlitres cell suspension per well, in a 96-well flat-bottomed microtiter plate (Corning, Costar 3595). Twenty-four hours later, culture medium was replaced with fresh growth medium and varying concentrations of test compound.
For both cell lines, cells were incubated with compound for three days and cellular viability was determined at the end of the incubation by measuring intracellular ATP with ATPLite assay system. All compounds were tested in triplicate.
Effect of compounds on cell viability was calculated by comparing the ATP levels of cells exposed to test compound with those of cells exposed to DMSO. A semi-log plot of relative ATP levels versus compound concentration was used to calculate the compound concentration required to inhibit growth by 50% (IC50). Data was analyzed by Prism software (GraphPad; San Diego, Calif.) by fitting it to a sigmoidal dose response curve. The IC50 values obtained for individual data sets were combined to obtain a mean IC50 and standard deviation of the mean.

Oral bioavailability = assay type: in vivo; conditions: oral administration

Bioavailability when administered orally (Oral bioavailability)	SMILES	IC50 [1] [µM]	IC50 [2] [µM]	IC50 [3] [µM]	IC50 [4] [µM]	IC50 [5] [µM]	IC50 [6] [µM]	Difference in cytotoxic activity between normal (MCF-7) and BCRP over-expressing (MCF-7/MX) cell line [6]
low bioavailability	O=C(Nc1cc(C(F)(F)F)ccc1Oc1ccc(Cl)c2ccccc12)c1cc(Cl)ccc1O [5-chloro-N-[2-(4-chloro-naphtalen-1-yloxy)-5-trifluoromethyl-phenyl]-2-hydroxy-benzamide]	0.739	0.754	0.592	0.8	0.739	1.48	two-fold; also recorded: twofold
	CC[C@@]1(O)C(=O)OCc2c1cc1n(c2=O)Cc2cc3ccccc3nc2-1 [Camptothecin ®]	0.0219					0.174	one-eighth
	COc1cccc2c1C(=O)c1c(O)c3c(c(O)c1C2=O)C[C@@](O)(C(=O)CO)C[C@@H]3O[C@H]1C[C@H](N)[C@@H](O)[C@H](C)O1 [Epirubicin]	0.15		0.15	0.958		1.11	one-seventh
	CC(=O)O[C@@]12CO[C@@H]1C[C@H](O)[C@@]1(C)C(=O)[C@H](O)C3=C(C)[C@@H](OC(=O)[C@H](O)[C@@H](NC(=O)OC(C)(C)C)c4ccccc4)C[C@@](O)([C@@H](OC(=O)c4ccccc4)[C@H]21)C3(C)C [Taxotere ®]		0.428			0.0005		
	CC[C@]1(O)C[C@@H]2CN(CCc3c([nH]c4ccccc34)[C@@](C(=O)OC)(c3cc4c(cc3OC)N(C)[C@H]3[C@@](O)(C(=O)OC)[C@H](OC(C)=O)[C@]5(CC)C=CCN6CC[C@]43[C@@H]65)C2)C1 [Vinblastine]		0.558			0.0006		
